The values that follow come from EP0498830B1, “GLUTAMIC AND ASPARTIC ACID DERIVATIVES WITH ANTIGASTRIN ACTIVITY AND A METHOD FOR THEIR PREPARATION” (ROTTA RESEARCH LABORATORIUM S.P.A., priority 1989, dated 1991).

Molecules are shown by their SMILES. ≈ marks a conversion by molar mass, not a printed value. Where two headings read alike, the source gives them in different places.

Data set [1] has as its system gastric acid secretion induced by pentagastrin. Kind of data set: Antisecretive activity in anaesthetised rats, stimulant pentagastrin. To be noted: for ED50: Rattus norvegicus, iv, pentagastrin 30 mcg/kg/h, I.V. bolus, anaesthetised rats, read-out: Antagonistic activity (ED50 mg/kg IV) towards gastric acid secretion induced by pentagastrin. Type of data set: in vivo. Here is the method: The antisecretive activity was determined in rats with the use of male animals weighing about 200g, anaesthetised with urethane. Gastric secretion was stimulated with pentagastrin. K.S. Lai's method (Gut 5, (1964), 327-341) was used, with slight modifications.
After tracheotomy, oesophageal and duodenal cannulae were inserted. A tepid solution (37°C) of 0.25 mM NaOH was perfused through the stomach by means of a peristaltic pump at a constant flow rate of 1 ml/minute. After stabilisation for 20 minutes, the dose of the stimulant, indicated in Table 3, dissolved in a physiological solution, was perfused for 120 minutes at a rate of 0.95 ml/hour. After 60 minutes of perfusion (basic stimulation), the products under test were administered intravenously (I.V.) in boli whilst the perfusion of the stimulant continued for a further 60 minutes. The acid secretion was recorded continuously as a function of time.
The activity of the product was evaluated as the reduction in the secreted acidity after administration of the product as a percentage of the basic acidity measured during the first 60 minutes of collection during which only pentagastrin was present.
The antagonistic compounds tested were administered in different doses so that an ID50 (that is the dose (in mg/Kg I.V.) which can inhibit the effect of the pentagastrin by 50% could be calculated.
The results thus obtained are given in the following table in which the activities of the compounds are expressed as ID50s under the stimulus of pentagastrin at 30 mcg/Kg/h.

The test system of data set [2] is guinea-pig gall bladders stimulated in vitro by CCK-8. Kind of data set: Anti-CCK activity on guinea-pig gall bladder contracted in vitro by CCK-8. To be noted: for IC50 ACTIVITY: CCK-8 10 ng/ml, at least three tests per compound. On the procedure:
In order to check the hypothesis that the molecular conformation of the subject compounds is suitable to give them a specific antagonistic activity towards gastrin and not towards CCK, the anticontracturant activity of some of the compounds of the invention was tested on guinea-pig gall bladders stimulated in vitro by CCK-8.
A longitudinal strip of guinea-pig gall bladder was placed in a bath for isolated organs in the presence of Krebs at a temperature of 32°C, continuously oxygenated by an oxygen-CO₂ mixture (95-5 V/V).
The isometric contractions were detected by means of a force transducer and recorded.
The gall bladder was contracted with the use of a 10ng/ml concentration of CCK-8; the antagonistic activity of the compounds towards the contracturant effect of the CCK was determined with the use of different concentrations and the IC50 value, that is, the concentration in mcg/ml of the compound which is able to antagonise the contracturant effect of the CCK by 50%, thus determined.
The results obtained are set out in the table below which gives the compounds tested and the IC50s which were calculated by the regression method on a set of at least three tests for each compound investigated.

Data set [3] addresses T1, gastrin receptor sites on the parietal cell membranes of the fundic mucosa of a guinea-pig stomach (Cavia porcellus, UniProt H0VZC5).
T1 sequence (H0VZC5 1-426): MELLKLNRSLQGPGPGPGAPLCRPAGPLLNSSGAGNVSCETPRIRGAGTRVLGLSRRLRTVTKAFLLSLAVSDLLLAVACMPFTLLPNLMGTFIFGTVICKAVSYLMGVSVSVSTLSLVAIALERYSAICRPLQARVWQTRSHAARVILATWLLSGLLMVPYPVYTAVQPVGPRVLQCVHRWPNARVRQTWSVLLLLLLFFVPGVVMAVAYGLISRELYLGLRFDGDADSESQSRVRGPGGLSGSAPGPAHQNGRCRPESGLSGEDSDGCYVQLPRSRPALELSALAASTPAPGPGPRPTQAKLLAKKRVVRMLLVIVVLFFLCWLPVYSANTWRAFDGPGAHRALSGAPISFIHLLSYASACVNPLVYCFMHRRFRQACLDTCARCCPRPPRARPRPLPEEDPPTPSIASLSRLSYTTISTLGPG
As to the kind of experiment: Inhibition of binding of tritiated pentagastrin to isolated guinea-pig gastric glands. More on the design: from tissue; host or cells: isolated gastric glands from guinea-pig fundic mucosa (collagenase digestion). On the procedure: The capacity of some of the compounds which are the subject of the invention to inhibit the binding of pentagastrin-[beta-alanyl-3-3H(N)] to the gastrin receptor sites on the parietal cell membranes of the fundic mucosa of a guinea-pig stomach was evaluated by comparison with the displacement of pentagastrin induced by proglumide, which is a reference antigastrin compound, by lorglumide, which is a powerful CCK antagonist mentioned above, and by the compound D5 which is the optical antipode (the L-series enantiomer) of the compound D1.
Male guinea pigs weighing about 400-500g were used. After the guinea pig had been killed, its stomach was removed and placed in oxygenated SPB buffer at 37°C (SPB = saline phosphate buffer: 149.6 mM NaCl, 3 mM K₂HPO₄, 0.64 mM NaH₂PO₄, pH 7.3).
After washing in the buffer, the stomach was placed on a petri dish and the antral part discarded.
The mucosa of the remaining part was removed from the underlying muscular part and was then chopped and transferred to a flask containing a collagenase digestion solution, 0.1% BSA and 0.2% glucose. The solution was incubated at 37°C for 10 minutes under agitation and a stream of 0₂.
During the incubation period, the tissue was passed several times through a series of pipettes with decreasing diameters in order to facilitate its digestion. At the end of the period, the tissue was removed and centrifuged at 1000 rpm. The supernatant liquid resulting from the centrifuging was discarded and the pellet washed several times with a washing buffer containing EPTA to remove the collagenase.
The glands were then isolated from the undigested tissue by conventional techniques, suspended in Hepes buffer for binding and incubated together with a radioactive tracer and the compounds under test for 30 minutes at 25°C.
After the supernatant liquid had been removed by centrifuging, the radioactivity associated with the pellet was determined with a liquid scintillator. The specific binding was determined as the difference between the binding in the absence and in the presence of 10⁻⁶ M pentagastrin.
The results obtained are shown in Table 1 which gives the IC50, that is, the concentration (in moles/litre) of the antagonist which can displace 50% of the pentagastrin tritiate from the receptor.

Data set [4] concerns the target T2, central gastrin receptors (Mus musculus, UniProt P56481).
T2 sequence (P56481 1-453): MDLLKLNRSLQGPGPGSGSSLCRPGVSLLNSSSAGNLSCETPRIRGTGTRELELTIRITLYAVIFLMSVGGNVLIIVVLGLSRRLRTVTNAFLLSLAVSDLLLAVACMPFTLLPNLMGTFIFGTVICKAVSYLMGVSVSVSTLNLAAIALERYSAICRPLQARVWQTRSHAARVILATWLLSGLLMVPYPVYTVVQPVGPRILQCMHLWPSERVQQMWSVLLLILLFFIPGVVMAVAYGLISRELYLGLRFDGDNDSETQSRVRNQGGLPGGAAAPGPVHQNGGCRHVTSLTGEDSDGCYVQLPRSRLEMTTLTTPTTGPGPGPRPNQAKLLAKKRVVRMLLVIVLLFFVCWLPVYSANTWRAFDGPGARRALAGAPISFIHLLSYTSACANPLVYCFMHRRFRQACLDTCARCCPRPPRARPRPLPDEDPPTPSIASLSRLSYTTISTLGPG
As to the kind of experiment: Inhibition of binding of tritiated pentagastrin to mouse cerebral cortex membranes. More on the design: Mouse cortex tissue was homogenised cold in 20 volumes of tris buffer (pH 7.7); from tissue; host or cells: mouse cerebral cortex membranes; species or system mice. To be noted: for IC50: displacement of pentagastrin tritiate, 40 minutes at 37°C. On the procedure:
Cerebral cortex membranes were therefore used and pentagastrin tritiate was again used as the ligand.
Mouse cortex tissue was homogenised cold in 20 volumes of tris buffer (pH 7.7). After washing and centrifuging, the final pellet was resuspended in 20 volumes of binding buffer containing, inter alia, TRIS, BSA and bacitracin. 0.4 ml of the membrane thus obtained were then incubated with a radioactive tracer and with the compounds under test for 40 minutes at 37°C.
After the supernatant liquid had been removed by centrifuging, the radioactivity associated with the pellet was determined, again with a liquid scintillator. The specific binding is the difference between the binding in the absence and in the presence of 10⁻⁶M pentagastrin.
Again, this gives the IC50s of the compounds tested with the meaning as given above.

The next data set is described as follows: in vivo. To be noted: mouse, iv.
A further data set deals with mice. Kind of data set: Acute toxicity LD50 IV in mice. To be noted: LD50 IV mice / ID50 IV rats.
Data set [5] concerns guinea-pig gall bladders stimulated in vitro by CCK-8. To be noted: CCK-8 10ng/ml; from U.S. Patent A-4 791 215; cited from earlier work.
A further data set deals with fundic mucosa. As to the kind of experiment: Pentagastrin-induced hyperplasia of the fundic mucosa in tumour-bearing mice. Format: in vivo. To be noted: 20 days. Here is the method: (§1) Male mice weighing 20-25g were inoculated subcutaneously in the interscapular region with a suspension of 8 x 10⁴ tumour cells of a mouse colic adenocarcinoma.
(§2) 5 groups each of 10 animals were used, that is : one control group of animals, one group of animals treated with 250 mcg/ml of pentagastrin twice a day and two groups of animals treated with the compound A-5 in doses of 15 and 30 mg/Kg i.p. respectively, twice a day, plus pentagastrin in the manner described above.
(§3) After 20 days, the animals were killed and the fundic mucosa and the tumours were removed, weighed and extracted in order to determine their DNA content.

Data set [6] relates to mouse colic adenocarcinoma. As to the kind of experiment: Pentagastrin-induced growth of transplanted colic tumour in mice. Type of data set: in vivo. To be noted: 20 days. Here is the method:
as §1, §2, §3

The mark [7] stands for this setting: displacement of 50% of pentagastrin tritiate, 30 minutes at 25°C, read-out: IC50.
The mark [8] stands for this setting: PEG + A-5 15 mg/Kg i.p. twice a day.
[9] abbreviates: PEG + A-5 30 mg/Kg i.p. twice a day.

Usually IC50 stands for the concentration needed to halve the response being measured. What is called LD50 is the dose at which mortality reaches 50%. A high value points to a less toxic substance.

With `CCC(C)(C)CCNC(=O)C(CCC(=O)O)NC(=O)c1cccc(C)c1` (racemic) [A20], the ED50 in data set [1] turned out to be 44 mg/kg. In addition, the “IC50 ACTIVITY” value in [2] is above 100 µg/mL. Moreover, the concentration for half-maximal inhibition (IC50) in data set [3] (setting [7]) was 680 nM; in data set [4], 830 nM.

Regarding `CCC(C)(CC)CCNC(=O)C(CCC(=O)O)NC(=O)c1cccc(Cl)c1` (racemic) [A13], the ED50 in data set [1] was determined as 33 mg/kg. Further, in data set [2], the “IC50 ACTIVITY” value was 32 µg/mL (≈ 80.6 µM). In addition, the “concentration relative to that of lorglumide” value in [2] (times greater than lorglumide) was “about 500 times”. Further, the IC50 in [3] is 91 nM; in [4], 92 nM.

On to `CCCCCNC(=O)C(CCC(=O)O)NC(=O)c1cccc(Cl)c1` (racemic) [A1], for which the ED50 in data set [1] was found to be 56 mg/kg. Also, in [2], the “IC50 ACTIVITY” value is above 100 µg/mL. Besides, the half-inhibitory concentration (IC50) in [3] (setting [7]) stood at 2000 nM; in [4] it was 6700 nM.

With `O=C(O)CCC(NC(=O)c1cccc(Cl)c1)C(=O)NC1CCCCC1` (racemic) [A7], the ED50 in [1] is 93 mg/kg. Also, in data set [2], the “IC50 ACTIVITY” value is above 100 µg/mL. Moreover, the half-maximal inhibitory concentration (IC50) in data set [3] (setting [7]) came to 17000 nM.

Consider `CC(C)(C)CCNC(=O)[C@@H](CCC(=O)O)NC(=O)c1cccc(Cl)c1` [D1, D-4-(3-chlorobenzoylamino)-5-(3,3-dimethylbutylamino)-5-oxopentanoic acid], for which, in [1], the ED50 came out at 28 mg/kg. Further, the “IC50 ACTIVITY” value in [2] was 83 µg/mL (≈ 225 µM). Moreover, the 50% lethal dose (LD50) in “in vivo” is around 600 mg/kg. In the data set with mice, the “toxic dose (LD50) relative to the antigastrin dose (ID50)” value is recorded as “about 20 times”. Further, the results for the half-maximal inhibitory concentration (IC50) in data set [3] (setting [7]) and in [4] were 53 nM and 61 nM, respectively. For the same molecule, the “times more active than the corresponding L-enantiomers (compound D5)” value in data set [4] (cortical membranes) was “about 10 times”.

For `CCCCCN(CCCCC)C(=O)C(CCC(=O)O)NC(=O)c1ccc(Cl)c(Cl)c1` (stereo not drawn) [Lorglumide, reference compound], in data set [1], the ED50 was above 100 mg/kg. In addition, the “activity against pentagastrin-induced acid secretion” value in [1] (up to a dose of 100 mg/Kg) is “completely inactive”. In addition, in data set [2], the “IC50 ACTIVITY” value was determined as 0.06 µg/mL (≈ 0.131 µM). In addition, the “concentration inhibiting by 50% the contraction induced by CCK-8” value in data set [5] is 0.06 µg/mL. Moreover, the IC50 in data set [3] (setting [7]) was determined as 11000 nM; in data set [4] it was 6100 nM. The “times less active than the most powerful compounds of the series” value in [3] (ratio of IC50s, gastric glands) was “about 200 times”. The “times less powerful than the most active compounds” value in [4] (ratio of IC50s, cortical membranes) is listed as “about 100 times”.

With `CC(C)(C)CCNC(=O)C(CCC(=O)O)NC(=O)c1cccc(Cl)c1` (racemic) [A5, ( ± )-4-[(3-chlorobenzoyl)-amino]-5-(3,3-dimethylbutylamino)-5-oxopentanoic acid], the ED50 in data set [1] was determined as 35 mg/kg. For the same molecule, the “FUNDIC DNA” value in the data set with fundic mucosa (setting [8]) was 0.28 ± 0.02 mg; with fundic mucosa (setting [9]), 0.23 ± 0.05 mg. Also, the “WEIGHT OF THE FUNDIC MUCOSA” value in the data set on fundic mucosa (setting [8]) was found to be 25.1 ± 4.7 mg; in the data set on fundic mucosa (setting [9]), 19.9 ± 2.1 mg. Besides, the “TUMOROUS DNA” value in [6] (setting [8]) came to 3.26 ± 0.49 mg; in data set [6] (setting [9]), 2.87 ± 0.2 mg. In addition, the “WEIGHT OF THE COLIC TUMOUR” value in [6] (setting [8]) is 579.0 ± 40 mg; in data set [6] (setting [9]), 559.5 ± 43 mg. In addition, the IC50 in data set [3] (setting [7]) was found to be 80 nM; in data set [4] it was 96 nM.
